Experimental data published in patent US20220009914A1, “Analogs of Nitrofuran Antibiotics to Combat Resistance” (The Trustees of Indiana University, priority 2020, published 2022).
Where two headings read alike, the source gives them in different places.

What was measured:
[1] = test system: Staphylococcus aureus strain Seattle 1945 (ATCC #25923); assay: bacterial proliferation assay, S. aureus; assay type: cell-based; conditions: read-out: Bacterial Proliferation EC50 S. aureus
Method: (§1) All compounds were evaluated for inhibiting the proliferation of E. coli and each of the ESKAPE bacteria. Results presented represent the averages of EC50 values obtained from at least four replicates. Evaluating compounds for inhibition of bacterial cell proliferation.
(§2) Growth Media: E. coli were grown with LB medium and all ESKAPE bacteria were grown in Brain Heart Infusion (BHI) medium (Becton, Dickinson and Company), with all liquid cultures supplemented with 25 mg/L Ca^2+ and 12.5 mg/L Mg^2+ to mimic physiological free concentrations of these cations. A 10 mg/mL Ca^2+ stock solution was prepared by dissolving 1.84 g of CaCl2.2H2O in 50 mL of deionized water, and a 10 mg/mL Mg^2+ stock solution was prepared by dissolving 4.18 g of MgCl2.6H2O in 50 mL deionized water—filter sterilized using 0.2 μm cellulose-acetate filters. 2.5 mL of the sterile 10 mg/mL Ca^2+ stock and 1.25 mL of the sterile 10 mg/mL Mg^2+ stock solutions were added per 1 L of autoclaved LB or BHI media to obtain 25 mg/L Ca^2+ and 12.5 mg/L Mg^2+ ions, respectively.
(§3) General Assay Protocol: Stock bacterial cultures were streaked onto LB or BHI agar plates and grown overnight at 37° C. Fresh aliquots of cation supplemented media were inoculated with single bacterial colonies and the cultures were grown overnight at 37° C. with shaking (240 rpm). The following morning, cultures were diluted 10-fold into fresh media and grown at 37° C. until bacteria had reached mid-log phase growth (OD600˜0.4-0.6). The cultures were then diluted into fresh media to achieve final OD600 readings of 0.017. Aliquots of these diluted cultures (30 μL) were added to clear, flat-bottom 384-well polystyrene plates that were previously stamped with 0.5 μL of test compounds in 20 μL of media (yielding initial OD600=0.01 bacterial cultures). All compounds were tested in dose-response with concentration ranges during the proliferation assays from 100 μM to 46 nM (3-fold dilution series). A second set of baseline control plates were prepared analogously, but without any bacteria added, to correct for possible compound absorbance and/or precipitation. […] Plates were then read at 600 nm using a Molecular Devices SpectraMax Plus384 microplate reader. […] Results presented represent the averages of EC50 values obtained from at least four replicates.
(§4) Evaluating analogs for inhibiting the growth of E. coli and the ESKAPE bacteria. Analogs were initially tested for antibacterial efficacy against representative strains of antibiotic-sensitive E. coli and the ESKAPE bacteria. To determine compound efficacy, bacterial proliferation assays were carried out in liquid media culture supplemented with physiological concentrations of free calcium and magnesium cations. For these assays, bacterial cultures (OD600=0.01) were exposed to test compounds in 8-point, 3-fold dilution series (100 μM to 46 nM concentration range), in 384-well plates. After addition of compounds to cultures, the plates were sealed with Breathe-Easy gas permeable membranes and allowed to grow to mid-log phase (OD600˜0.4-0.6), whereupon final OD600 readings were taken to assess for bacterial growth and inhibition.

[2] = target: T1, E. coli GroEL/ES (Escherichia coli, UniProt P0A6F5); assay: GroEL/ES-mediated dMDH refolding assay in the presence of E. coli NfsB nitroreductase; assay type: biochemical; conditions: for GroEL/ES inhibition in words: in the presence of E. coli NfsB
T1 construct: made in house; host or cells: GroEL in NEB 5-alpha E. coli; GroES in E. coli BL21 (DE3)
Method: Evaluating compounds for inhibition in the GroEL/ES-mediated dMDH refolding assay and native MDH activity counter-screen in the presence of E. coli NfsB nitroreductase. These assays were performed nearly identically to those mentioned above, but with a couple distinct modifications. For both assays, 10 μg/mL of the E. coli NfsB nitroreductase enzyme (Sigma product #N9284) was added to the initial GroEL/ES-dMDH solution. For the GroEL/ES-dMDH refolding assay, after stamping with compounds, 10 μL of a 2.4 mM NADH solution was added, followed by a 10 minute incubation period at 37° C. to bioactivate the nitrofuran analogs. The remainder of the assay was conducted as in our standard protocol where no NfsB nitroreductase was present. […] For the native MDH activity counter-screen in the presence of E. coli NfsB nitroreductase, the assay was performed as described above for the GroEL/ES-dMDH refolding assay with NfsB; however, compound addition to the assay plates was conducted after the EDTA quench step, followed by a 10 minute incubation period at 37° C. to bioactivate the nitrofuran analogs. […] Results presented represent the averages of IC50 values obtained from at least four replicates in each assay.
Evaluating analogs for inhibiting GroEL/ES-mediated substrate refolding functions in the presence of the E. coli NfsB type-1 nitroreductase. […] However, our standard GroEL/ES-mediated refolding assays and native substrate reporter counter-screens were conducted without nitroreductases present.

[3] = test system: Acinetobacter baumannii strain 2208 (ATCC 19606); assay: bacterial proliferation assay, A. baumannii; assay type: cell-based; conditions: ATCC19606, read-out: Bacterial Proliferation EC50 A. baumannii
Method: as §1, §2, §3, §4

[4] = Staphylococcus aureus, ATCC25923
[5] = with E. coli NfsB nitroreductase, read-out: NfsB-GroEL/ES-dMDH Refolding IC50

T1 sequence (P0A6F5 2-548): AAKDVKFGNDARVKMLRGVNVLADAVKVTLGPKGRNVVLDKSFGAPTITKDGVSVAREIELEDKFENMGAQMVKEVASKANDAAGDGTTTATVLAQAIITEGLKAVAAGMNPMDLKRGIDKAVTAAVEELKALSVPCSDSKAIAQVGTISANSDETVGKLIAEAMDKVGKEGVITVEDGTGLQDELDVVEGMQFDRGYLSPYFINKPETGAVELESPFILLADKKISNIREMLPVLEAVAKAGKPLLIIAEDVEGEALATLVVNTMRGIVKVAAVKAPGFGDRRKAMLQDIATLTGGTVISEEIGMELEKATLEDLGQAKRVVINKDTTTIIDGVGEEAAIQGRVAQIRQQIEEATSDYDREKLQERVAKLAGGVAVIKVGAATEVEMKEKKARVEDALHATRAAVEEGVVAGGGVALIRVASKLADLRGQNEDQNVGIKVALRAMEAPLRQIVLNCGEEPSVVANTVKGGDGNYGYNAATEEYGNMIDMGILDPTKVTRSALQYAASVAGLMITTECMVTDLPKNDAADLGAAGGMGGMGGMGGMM

| Structure (SMILES) | EC50 [1, 4] [µM] | IC50 [2] [µM] | EC50 [3] [µM] | IC50 [2, 5] [µM] | EC50 [1] [µM] | GroEL/ES inhibition in words [2] |
| --- | --- | --- | --- | --- | --- | --- |
| O=C(N/N=C/c1ccc([N+](=O)[O-])o1)c1ccc(NS(=O)(=O)c2ccc(Br)cc2)cc1 [Compound 27, 4-bromo-N-(4-(2-((5-nitrofuran-2-yl)methylene)hydrazine-1-carbonyl)phenyl)benzenesulfonamide] | > 100 | 2 | > 100 |  |  |  |
| O=C(N/N=C/c1ccc([N+](=O)[O-])o1)c1ccccc1 [Compound 18, N′-((5-nitrofuran-2-yl)methylene)benzohydrazide] | 10 |  | > 100 | 12 |  |  |
| CCN(CC)S(=O)(=O)c1cccc(C(=O)N/N=C/c2ccc([N+](=O)[O-])o2)c1 [Compound 25, N,N-diethyl-3-(2-((5-nitrofuran-2-yl)methylene)hydrazine-1-carbonyl)benzenesulfonamide] | 9.6 | 6 | > 100 |  |  |  |
| CCOc1ccc(S(=O)(=O)Nc2ccc(C(=O)N/N=C/c3ccc(O)c4ncccc34)cc2)cc1 [Compound 15, 4-ethoxy-N-(4-(2-((8-hydroxyquinolin-5-yl)methylene)hydrazine-1-carbonyl)phenyl)benzenesulfonamide] | > 100 | 3.1 | > 100 |  |  |  |
| CCOc1ccc(S(=O)(=O)Nc2ccc(C(=O)N/N=C/c3ccc([N+](=O)[O-])o3)cc2)cc1 [Compound 28, 4-ethoxy-N-(4-(2-((5-nitrofuran-2-yl)methylene)hydrazine-1-carbonyl)phenyl)benzenesulfonamide] | > 100 | 39 | > 100 |  |  |  |
| COc1ccc(C(=O)N/N=C/c2ccc(O)c3ncccc23)cc1 [Compound 1, N′-((8-hydroxyquinolin-5-yl)methylene)-4-methoxybenzohydrazide] |  | 66 | > 100 |  | 87 |  |
| O=Cc1ccc([N+](=O)[O-])o1 [Compound 41, reference compound] | 5.8 | > 83 | 12 |  |  |  |
| O=C(N/N=C/c1ccc(O)cc1)c1ccccc1 [Compound 36, N′-(4-hydroxybenzylidene)benzohydrazide] | > 100 | > 83 | > 100 |  |  |  |
| O=C(N/N=C/c1ccc(O)c2ncccc12)c1cccc2ccccc12 [Compound 9, N′-((8-hydroxyquinolin-5-yl)methylene)-1-naphthohydrazide] | 56 | 7.7 | > 100 |  |  |  |
| O=C(N/N=C/c1ccc(O)c2ncccc12)c1ccc(O)cc1 [Compound 7, 4-hydroxy-N′-((8-hydroxyquinolin-5-yl)methylene)benzohydrazide] | 48 | 16 | 71 |  |  |  |
| O=C(N/N=C/c1ccc([N+](=O)[O-])o1)c1ccc(O)cc1 [Nifuroxazide, reference compound] | 16 |  | > 100 | 19 |  | weak to moderate GroEL/ES inhibitors |
| COc1ccc(C(=O)N/N=C/c2ccc([N+](=O)[O-])o2)cc1 [Compound 20, 4-methoxy-N′-((5-nitrofuran-2-yl)methylene)benzohydrazide] | 8.1 |  | > 100 | 10 |  |  |
| O=C(N/N=C/c1ccc([N+](=O)[O-])o1)c1ccccc1Oc1ccccc1 [Compound 23, N′-((5-nitrofuran-2-yl)methylene)-2-phenoxybenzohydrazide] | 5.2 |  | > 100 |  |  |  |
| CN(C)c1ccc(C(=O)N/N=C/c2ccc(O)c3ncccc23)cc1 [Compound 8, 4-(dimethylamino)-N′-((8-hydroxyquinolin-5-yl)methylene)benzohydrazide] | 99 | 25 | > 100 |  |  |  |
| COc1ccc(C(=O)NN)cc1 [Compound 42, reference compound] | > 100 | > 83 | > 100 |  |  |  |
| O=[N+]([O-])c1ccc(O)c2ncccc12 [Nitroxoline, reference compound] | 9.5 | 27 | 2.5 |  |  |  |
| O=C(N/N=C/c1ccc(O)c2ncccc12)c1ccc(Cl)s1 [Compound 4, 5-chloro-N′-((8-hydroxyquinolin-5-yl)methylene)thiophene-2-carbohydrazide] | 84 | 4 | > 100 |  |  |  |
| O=C(N/N=C/c1ccc([N+](=O)[O-])o1)c1cccs1 [Compound 16, N′-((5-nitrofuran-2-yl)methylene)thiophene-2-carbohydrazide] | 7.1 |  | 82 | 7.7 |  |  |
| O=C(N/N=C/c1ccc(O)c2ncccc12)c1ccccc1Oc1ccccc1 [Compound 10, N′-((8-hydroxyquinolin-5-yl)methylene)-2-phenoxybenzohydrazide] | > 100 | 15 | > 100 |  |  |  |
| O=C(N/N=C/c1ccc([N+](=O)[O-])o1)c1ccc(NS(=O)(=O)c2cccs2)cc1 [Compound 26, N-(4-(2-((5-nitrofuran-2-yl)methylene)hydrazine-1-carbonyl)phenyl)thiophene-2-sulfonamide] | 11 | 6 | > 100 |  |  |  |
| O=C(N/N=C/c1ccc([N+](=O)[O-])o1)c1cccc(Oc2ccccc2)c1 [Compound 24, N′-((5-nitrofuran-2-yl)methylene)-3-phenoxybenzohydrazide] | 3.5 | 2.8 | > 100 |  |  |  |
| O=C(N/N=C/c1ccccc1)c1ccccc1 [Compound 38, N′-benzylidenebenzohydrazide] | > 100 | > 83 | > 100 |  |  |  |
| O=C(N/N=C/c1ccc([N+](=O)[O-])o1)c1ccc(Cl)s1 [Compound 17, 5-chloro-N′-((5-nitrofuran-2-yl)methylene)thiophene-2-carbohydrazide] | 3 |  | 72 | 3.2 |  | most potent at inhibiting GroEL/ES in the presence of NfsB |
| O=C(N/N=C/c1ccc([N+](=O)[O-])o1)c1cccc2ccccc12 [Compound 22, N′-((5-nitrofuran-2-yl)methylene)-1-naphthohydrazide] | 6 | 5.3 | > 100 |  |  |  |
| CN(C)c1ccc(C(=O)N/N=C/c2ccc([N+](=O)[O-])o2)cc1 [Compound 21, 4-(dimethylamino)-N′-((5-nitrofuran-2-yl)methylene)benzohydrazide] | 34 |  | > 100 | 12 |  |  |
| O=C(N/N=C/c1ccc(O)c2ncccc12)c1cccs1 [Compound 3, N′-((8-hydroxyquinolin-5-yl)methylene)thiophene-2-carbohydrazide] | 63 | 29 | 74 |  |  |  |
